What was measured:
[1] = test system: velvetleaf; assay: Test A pre-/postemergence herbicide test; type: in vivo, Abutilon theophrasti
How it was run: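 Sandy loam soil given preemergence directed spray; plants at 2 to 10 cm, one- to two-leaf stage, sprayed to runoff postemergence, compounds in non-phytotoxic solvent with surfactant. Injury rated visually versus untreated controls after about ten greenhouse days, 0 (no effect) to 100 (complete control); dash means not tested.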

[2] = test system: velvetleaf; assay: Test B pre-/postemergence herbicide test; type: in vivo, Abutilon theophrasti; conditions: for Velvetleaf plant response rating: postemergence, visual rating
How it was run: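 Herbicidal effect was judged by eye on a 0–100 scale after plants stood 13 to 15 days in the greenhouse following pre- or postemergence treatment with surfactant-containing formulations.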

[3] = test system: bermudagrass; assay: Test C pre-/postemergence herbicide test; type: in vivo, Cynodon dactylon; conditions: for Bermudagrass plant response rating: 500 g ai/ha
How it was run: (§1)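 Preemergence: seeds planted and treated with compound in non-phytotoxic solvent with surfactant; postemergence: plants at 2 to 18 cm (1- to 4-leaf stage) sprayed likewise. Kept in greenhouse 12 to 14 days, then visually rated against controls, 0 (no effect) to 100 (complete control).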

[4] = test system: cocklebur; assay: Test C pre-/postemergence herbicide test; type: in vivo, Xanthium strumarium; conditions: for Cocklebur plant response rating: 500 g ai/ha
How it was run: as §1

[5] = test system: large crabgrass; assay: Test C pre-/postemergence herbicide test; type: in vivo, Digitaria sanguinalis; conditions: for Crabgrass, Large plant response rating: 500 g ai/ha
How it was run: as §1

[6] = test system: kochia; assay: Test C pre-/postemergence herbicide test; type: in vivo, Kochia scoparia; conditions: for Kochia plant response rating: 500 g ai/ha
How it was run: as §1

[7] = test system: yellow nutsedge; assay: Test C pre-/postemergence herbicide test; type: in vivo, Cyperus esculentus; conditions: for Nutsedge, Yellow plant response rating: 500 g ai/ha
How it was run: as §1

[8] = test system: soybean; assay: Test C pre-/postemergence herbicide test; type: in vivo, Glycine max; conditions: for Soybean plant response rating: 500 g ai/ha
How it was run: as §1

[9] = test system: ducksalad; assay: Test C flooded paddy test; type: in vivo, Heteranthera limosa; conditions: for Plant response rating, Ducksalad: 500 g ai/ha, visual rating after 12 to 14 days
[10] = 500 g ai/ha, visual rating 0-100, 0 no effect, 100 complete control, preemergence
[11] = 125 g ai/ha, scale 0 (no effect) to 100 (complete control)
[12] = preemergence, 125 g ai/ha, 0 to 100 scale, 0 is no effect, 100 is complete control
[13] = 125 g ai/ha, scale 0 (no effect) to 100 (complete control), visual, 12 to 14 days, preemergence
[14] = 250 g ai/ha, scale 0 to 100 (0 no effect, 100 complete control), visual, 12 to 14 days, preemergence
[15] = Postemergence, 250 g ai/ha, scale 0 to 100, 0 no effect, 100 complete control
[16] = Preemergence, scale 0 to 100, 0 no effect, 100 complete control
[17] = postemergence, 125 g ai/ha, scale 0 to 100
[18] = postemergence, 62 g ai/ha, scale 0 to 100
[19] = 62 g ai/ha, scale 0 to 100 (0 no effect, 100 complete control)
[20] = 250 g ai/ha, scale of 0 to 100, 0 is no effect, 100 is complete control
[21] = scale 0 to 100 (0 no effect, 100 complete control)

SMILES: CC(=NO)c1cccc(NC(=O)c2cc(C(C)(C)C)nn2CCF)c1 [Compound 115]
- Velvetleaf plant response rating ([1]; Postemergence, 500 g ai/ha, 0 to 100 scale, 0 no effect, 100 complete control): 40
- Plant response rating, Velvetleaf ([1]; Postemergence, 2000 g ai/ha, 0 to 100 scale, 0 no effect, 100 complete control): 40
- Velvetleaf plant response rating ([1]; Preemergence, 500 g ai/ha, visual rating, 0 to 100 scale (0 no effect, 100 complete control)): 85
- Velvetleaf plant response rating ([1]; Preemergence, 2000 g ai/ha, visual rating, 0 to 100 scale (0 no effect, 100 complete control)): 95
- Plant response rating, Velvetleaf [2, 10]: 100
- Plant response rating, Velvetleaf ([2]; Postemergence, 500 g ai/ha, visual rating after 13 to 15 days, scale 0 (no effect) to 100 (complete control)): 80
- Velvetleaf plant response rating [2, 11]: 60
- Plant response rating, Velvetleaf [2, 12]: 80
- Plant response rating (0 = no effect, 100 = complete control), Bermudagrass ([3]; 62 g ai/ha, preemergence): 100
- Plant response rating, Bermudagrass [3, 13]: 100
- Plant response rating, Bermudagrass [3, 14]: 100
- Bermudagrass plant response rating ([3]; Postemergence, scale 0 to 100): 100
- Plant response rating, Bermudagrass [3, 15]: 60
- Bermudagrass plant response rating [3, 16]: 100
- Plant response rating, Bermudagrass [3, 17]: 60
- Plant response rating, Bermudagrass [3, 18]: 10
- Plant response rating (0 = no effect, 100 = complete control), Cocklebur ([4]; 62 g ai/ha, preemergence): 20
- Plant response rating, Cocklebur [4, 13]: 40
- Plant response rating, Cocklebur [4, 14]: 50
- Cocklebur plant response rating ([4]; Postemergence, scale 0 to 100): 100
- Plant response rating, Cocklebur [4, 15]: 100
- Cocklebur plant response rating [4, 16]: 100
- Plant response rating, Cocklebur [4, 17]: 90
- Plant response rating, Cocklebur [4, 18]: 90
- Plant response rating (0 = no effect, 100 = complete control), Crabgrass, Large ([5]; 62 g ai/ha, preemergence): 100
- Plant response rating, Crabgrass, Large [5, 13]: 100
- Plant response rating, Crabgrass, Large [5, 14]: 100
- Crabgrass, Large plant response rating ([5]; Postemergence, scale 0 to 100): 90
- Plant response rating, Crabgrass, Large [5, 15]: 70
- Crabgrass, Large plant response rating [5, 16]: 100
- Plant response rating, Crabgrass, Large [5, 17]: 70
- Plant response rating, Crabgrass, Large [5, 18]: 60
- Plant response rating (0 = no effect, 100 = complete control), Kochia ([6]; 62 g ai/ha, preemergence): 100
- Plant response rating, Kochia [6, 13]: 100
- Kochia plant response rating ([6]; Postemergence, scale 0 to 100): 90
- Plant response rating, Kochia [6, 15]: 90
- Kochia plant response rating [6, 16]: 100
- Plant response rating, Kochia [6, 17]: 90
- Plant response rating, Kochia [6, 18]: 80
- Plant response rating (0 = no effect, 100 = complete control), Nutsedge, Yellow ([7]; 62 g ai/ha, preemergence): 0
- Plant response rating, Nutsedge, Yellow [7, 13]: 0
- Nutsedge, Yellow plant response rating ([7]; Postemergence, scale 0 to 100): 30
- Plant response rating, Nutsedge, Yellow [7, 15]: 30
- Nutsedge, Yellow plant response rating [7, 16]: 20
- Plant response rating, Nutsedge, Yellow [7, 17]: 10
- Plant response rating, Nutsedge, Yellow [7, 18]: 0
- Plant response rating (0 = no effect, 100 = complete control), Soybean ([8]; 62 g ai/ha, preemergence): 0
- Plant response rating, Soybean [8, 13]: 0
- Soybean plant response rating ([8]; Postemergence, scale 0 to 100): 90
- Plant response rating, Soybean [8, 15]: 80
- Soybean plant response rating [8, 16]: 0
- Plant response rating, Soybean [8, 17]: 70
- Plant response rating, Soybean [8, 18]: 60
- Ducksalad plant response rating [9, 19]: 30
- Ducksalad plant response rating ([9]; 125 g ai/ha, scale of 0 to 100, 0 is no effect, 100 is complete control): 75
- Ducksalad plant response rating [9, 20]: 85
- Plant response rating, Ducksalad [9, 21]: 90

SMILES: CCn1nc(C(C)(C)C)cc1C(=O)Nc1cccc(SC)c1 [Compound 131]
- Velvetleaf plant response rating ([1]; Postemergence, 250 g ai/ha, 0 to 100 scale, 0 no effect, 100 complete control): 15
- Plant response rating, Velvetleaf ([1]; Postemergence, 1000 g ai/ha, 0 to 100 scale, 0 no effect, 100 complete control): 10
- Velvetleaf plant response rating ([1]; Preemergence, 1000 g ai/ha, visual rating, 0 to 100 scale (0 no effect, 100 complete control)): 60
- Velvetleaf plant response rating ([1]; preemergence, 250 g ai/ha, visual injury, 0 to 100 scale (0 no effect, 100 complete control)): 10
- Plant response rating, Velvetleaf [2, 10]: 100
- Velvetleaf plant response rating [2, 11]: 10
- Velvetleaf plant response rating ([2]; 500 g ai/ha, scale 0 (no effect) to 100 (complete control)): 40
- Plant response rating, Velvetleaf [2, 12]: 50
- Plant response rating, Bermudagrass ([3]; 31 g ai/ha, scale 0 to 100, 0 no effect, 100 complete control, last section of Table C (species set of preemergence test)): 0
- Plant response rating (0 = no effect, 100 = complete control), Bermudagrass ([3]; 62 g ai/ha, preemergence): 15
- Plant response rating, Bermudagrass [3, 13]: 90
- Plant response rating, Bermudagrass [3, 14]: 95
- Plant response rating (0 = no effect, 100 = complete control), Cocklebur ([4]; 62 g ai/ha, preemergence): 0
- Plant response rating, Cocklebur [4, 13]: 20
- Plant response rating, Cocklebur [4, 14]: 25
- Plant response rating (0 = no effect, 100 = complete control), Crabgrass, Large ([5]; 62 g ai/ha, preemergence): 45
- Plant response rating, Crabgrass, Large [5, 13]: 90
- Plant response rating, Crabgrass, Large [5, 14]: 90
- Plant response rating (0 = no effect, 100 = complete control), Kochia ([6]; 62 g ai/ha, preemergence): 85
- Plant response rating, Kochia [6, 13]: 85
- Plant response rating, Nutsedge, Yellow ([7]; 31 g ai/ha, scale 0 to 100, last section of Table C, preemergence): 0
- Plant response rating (0 = no effect, 100 = complete control), Nutsedge, Yellow ([7]; 62 g ai/ha, preemergence): 0
- Plant response rating, Nutsedge, Yellow [7, 13]: 0
- Plant response rating (0 = no effect, 100 = complete control), Soybean ([8]; 62 g ai/ha, preemergence): 0
- Plant response rating, Soybean [8, 13]: 0
- Ducksalad plant response rating [9, 19]: 0
- Ducksalad plant response rating ([9]; 125 g ai/ha, scale 0 to 100 (0 no effect, 100 complete control)): 20
- Ducksalad plant response rating [9, 20]: 45
- Plant response rating, Ducksalad [9, 21]: 80

Source: patent publication US20060069132A1, “Azolecarboxamide herbicides” (priority 2004, published 2006)
